From patent US20030050306A1, “Novel heteroaryl derivatives, their preparation and use” (H. Lundbeck A/S, priority 1999, published 2003)

What was measured:
[1] = molecular target: T1, cloned human 5-HT1A receptors (Homo sapiens, UniProt P08908); assay: Inhibition of 3H-5-CT binding to human 5-HT1A receptors; conditions: cloned human 5-HT1A receptors in HeLa cells (HA7)
T1 construct: expressed in transfected cells; host or cells: HeLa cells (HA7)
T1 sequence (P08908 1-422): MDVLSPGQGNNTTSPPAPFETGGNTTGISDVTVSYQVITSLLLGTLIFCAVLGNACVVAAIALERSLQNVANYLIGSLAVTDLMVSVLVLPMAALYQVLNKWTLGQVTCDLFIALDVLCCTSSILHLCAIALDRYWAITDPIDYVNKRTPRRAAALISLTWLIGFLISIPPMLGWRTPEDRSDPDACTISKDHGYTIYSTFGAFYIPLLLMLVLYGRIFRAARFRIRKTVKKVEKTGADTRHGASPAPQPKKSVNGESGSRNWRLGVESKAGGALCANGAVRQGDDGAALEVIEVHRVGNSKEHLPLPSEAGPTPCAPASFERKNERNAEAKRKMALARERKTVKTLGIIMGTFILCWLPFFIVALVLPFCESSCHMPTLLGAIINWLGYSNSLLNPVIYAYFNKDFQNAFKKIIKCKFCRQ
Experimental: The affinity of the compounds of the invention to 5-HT1A receptors was determined by measuring the inhibition of binding of a radioactive ligand at 5-HT1A receptors as described in the following test:
Inhibition of ^3H-5-CT Binding to Human 5-HT1A Receptors
By this method the inhibition by drugs of the binding of the 5-HT1A agonist ^3H-5-carboxamido tryptamine (3H-5-CT) to cloned human 5-HT1A receptors stably expressed in transfected HeLa cells (HA7) (Fargin, A. et al, J. Biol. Chem., 1989, 264, 14848) is determined in vitro. The assay was performed as a modification of the method described by Harrington, M. A. et at, J. Pharmacol. Exp. Ther., 1994, 268, 1098. Human 5-HT1A receptors (40 μg of cell homogenate) were incubated for 15 minutes at 37° C. in 50 mM Tris buffer at pH 7.7 in the presence of ^3H-5-CT. Non-specific binding was determined by including 10 μM of metergoline. The reaction was terminated by rapid filtration through Unifilter GF/B filters on a Tomtec Cell Harvester. Filters were counted in a Packard Top Counter.

[2] = molecular target: T2, human cloned dopamine D4.2 receptors (Homo sapiens, UniProt P21917, DEL265-296); assay: Inhibition of the binding of 3H-YM-09151-2 to human dopamine D4 receptors; conditions: human cloned dopamine D4.2 receptors in CHO-cells
T2 construct: expressed in transfected cells; host or cells: CHO cells
T2 sequence (P21917 with tags, fused parts or gaps DEL265-296): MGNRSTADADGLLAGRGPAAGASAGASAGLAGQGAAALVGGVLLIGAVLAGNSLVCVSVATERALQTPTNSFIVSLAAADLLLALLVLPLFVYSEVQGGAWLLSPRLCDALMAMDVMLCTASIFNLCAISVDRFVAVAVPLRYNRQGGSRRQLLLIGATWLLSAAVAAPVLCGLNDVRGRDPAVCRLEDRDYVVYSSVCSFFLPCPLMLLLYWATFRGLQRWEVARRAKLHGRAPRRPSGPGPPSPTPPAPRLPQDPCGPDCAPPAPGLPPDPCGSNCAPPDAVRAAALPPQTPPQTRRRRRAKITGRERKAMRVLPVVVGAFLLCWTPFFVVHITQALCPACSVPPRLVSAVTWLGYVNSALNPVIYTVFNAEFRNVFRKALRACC
Experimental: The compounds of the invention have also been tested for their affinity to dopamine D4 receptors in the following test.
Inhibition of the Binding of ^3H-YM-09151-2 to Human Dopamine D4 Receptors
By this method the inhibition by drugs of the binding of [^3H]YM-09151-2 (0.06 nM) to membranes of human cloned dopamine D4.2 receptors expressed in CHO-cells is determined in vitro. Method modified from NEN Life Science Products, Inc., technical data certificate PC2533-10/96.

| SMILES | IC50 [1] [nM] | inhibition at 0.05 µM ([2]; at 50 nM) [%] | IC50 [2] [nM] | further results |
| --- | --- | --- | --- | --- |
| Clc1ccc(SCCN2CCN(c3cccc4c3OCCO4)CC2)c(Cl)c1 [Compound 7ap, 1-[2-(2,4-Dichloro-phenylsulfanyl)-ethyl]-4-(2,3-dihydro-henzo[1,4]dioxin-5-yl)-piperazine] |  |  |  | Inhibition of 3H-5-CT Binding % inhibition at 100 nM ([1]; at 100 nM): 91%; Inhibition of 3H-YM-09151-2 binding % inhibition at 50 nM ([2]; at 50 nM): 78% |
| Fc1ccc(SCCN2CCN(c3cccc4c3OCCO4)CC2)cc1 [Compound 3b, 1-(2,3-Dihydro-benzo[1,4]dioxin-5-yl)-4-[2-(4-fluoro-phenylsulfanyl)-ethyl]-piperazine] | 97 |  | 4.3 |  |
| Fc1ccc(OCCCCN2CCN(c3cccc4ccsc34)CC2)c(Br)c1 [Compound 5bf, 1-Benzo[b]thiophen-7-yl-4-[4-(2-bromo-4-fluoro-phenoxy)-butyl]-piperazine] | 35 |  | 3.1 |  |
| CC1(C)COc2c(N3CCN(CCCOc4c(Cl)cc(S(C)(=O)=O)cc4Cl)CC3)cc(Cl)cc21 [Compound 5bi, 1-(5-Chloro-3,3-dimethyl-2,3-dihydro-benzofuran-7-yl)-4-[3-(2,6-dichloro-4-methanesulfonyl-phenoxy)-propyl]-piperazine] | 3.5 |  | 87 |  |
| Fc1cc(Cl)c(OCCCN2CCN(c3cccc4ccsc34)CC2)c(Cl)c1 [Compound 5au, 1-Benzo[b]thiophen-7-yl-4-[3-(2,6-dichloro-4-fluoro-phenoxy)-propyl]-piperazine] | 6.4 |  | 7.6 |  |
| Brc1cc(Br)c(OCCCN2CCN(c3cccc4c3OCCO4)CC2)c(Br)c1 [Compound 5bq, 1-(2,3-Dihydro-benzof[1,4]dioxin-5-yl)-4-[3-(2,4,6-tribromo-phenoxy)-propyl]-piperazine] | 1.2 |  | 2.4 |  |
| FC(F)(F)c1ccc(OCCCN2CCN(c3cccc4c3OCCO4)CC2)cc1 [Compound 2b, 1-(2,3-Dihydro-benzo[1,4]dioxin-5-yl)-4-[3-(4-trifluoromethyl-phenoxy)-propyl]-piperazine] | 15 |  | 12 |  |
| Clc1cccc(Cl)c1SCCCCN1CCN(c2cccc3c2OCCO3)CC1 [Compound 5ab, 1-[4-(2,6-Dichloro-phenylsulfanyl)-butyl]-4-(2,3-dihydro-benzo[1,4]dioxin-5-yl)-piperazine] | 1.9 |  | 2.1 |  |
| Fc1cc(F)c(OCCCN2CCN(c3cccc4c3OCCO4)CC2)c(F)c1 [Compound 1c, 1-(2,3-Dihydro-benzo[1,4]dioxin-5-yl)-4-[3-(2,4,6-trifluoro-phenoxy)-propyl]-piperazine] | 2 |  | 13 |  |
| CC1(C)Cc2cc(Cl)cc(N3CCN(CCCCOc4ccc(F)cc4Cl)CC3)c2O1 [Compound 5bd, 1-(5-Chloro-2,2-dimethyl-2,3-dihydro-benzofuran-7-yl)-4-[4-(2-chloro-4-fluoro-phenoxy)-butyl]-piperazine] | 52 |  | 6.5 |  |
| Clc1cccc(Cl)c1SCCCN1CCN(c2cccc3c2OCCO3)CC1 [Compound 5aw, 1-[3-(2,6-Dichloro-phenylsulfanyl)-propyl]-4-(2,3-dihydro-benzo[1,4]dioxin-5-yl)-piperazine] | 1.7 |  | 1.9 |  |

Now from value to compound, other results behind:

| IC50 [1] [nM] | inhibition at 0.05 µM ([2]; at 50 nM) [%] | IC50 [2] [nM] | SMILES | further results |
| --- | --- | --- | --- | --- |
| 1.6 | 87 |  | Clc1cccc(SCCN2CCN(c3cccc4c3OCCO4)CC2)c1Cl [Compound 7ah, 1-[2-(2,3-Dichloro-phenylsulfanyl)-ethyl]-4-(2,3-dihydro-benzo[1,4]dioxin-5-yl)-piperazine] |  |
| 8.8 |  | 2.3 | Clc1ccccc1SCCCN1CCN(c2cccc3c2OCCO3)CC1 [Compound 5cd, 1-[3-(2-Chloro-phenylsulfanyl)-propyl]-4-(2,3-dihydro-benzo[1,4]dioxin-5-yl)-piperazine] |  |
|  | 92 |  | Fc1ccccc1SCCN1CCN(c2cccc3c2OCCO3)CC1 [Compound 7aw, 1-(2,3-Dihydro-benzo[1,4]dioxin-5-yl)-4-[2-(2-fluoro-phenylsulfanyl)-ethyl]-piperazine] | inhibition at 0.1 µM ([1]; at 100 nM): 74% |
| 22 |  | 11 | CC1(C)Cc2cc(Cl)cc(N3CCN(CCCOc4c(Cl)cc(F)cc4Cl)CC3)c2O1 [Compound 5bk, 1-(5-Chloro-2,2-dimethyl-2,3-dihydro-benzofuran-7-yl)-4-[3-(2,6-dichloro-4-fluoro-phenoxy)-propyl]-piperazine] |  |
|  | 92 |  | FC(F)(F)Oc1ccc(SCCCN2CCN(c3cccc4c3OCCO4)CC2)cc1 [Compound 7bj, 1-(2,3-Dihydro-benzo[1,4]dioxin-5-yl)-4-[3-(4-trifluoromethoxy-phenylsulfanyl)-propyl]-piperazine] | inhibition at 0.1 µM ([1]; at 100 nM): 106% |
| 5 |  | 10 | Fc1cc(Br)cc(F)c1OCCCCN1CCN(c2cccc3c2OCCO3)CC1 [Compound 5bz, 1-[4-(4-Bromo-2,6-difluoro-phenoxy)-butyl]-4-(2,3-dihydro-benzo[1,4]dioxin-5-yl)-piperazine] |  |
|  | 102 |  | Cc1ccccc1SCCN1CCN(c2cccc3c2OCCO3)CC1 [Compound 7bo, 1-(2,3-Dihydro-benzo[1,4]dioxin-5-yl)-4-(2-o-tolylsulfanyl-ethyl)-piperazine] | inhibition at 0.1 µM ([1]; at 100 nM): 91% |
| 1.7 |  | 12 | Fc1cc(Br)cc(F)c1OCCCN1CCN(c2cccc3c2OCCO3)CC1 [Compound 5cg, 1-[3-(4-Bromo-2,6-difluoro-phenoxy)-propyl]-4-(2,3-dihydro-benzo[1,4]dioxin-5-yl)-piperazine] |  |
|  | 89 |  | Cc1ccc(Cl)c(OCCCCN2CCN(c3cccc4c3OCCO4)CC2)c1 [Compound 7ao, 1-[4-(2-Chloro-5-methyl-phenoxy)-butyl]-4-(2,3-dihydro-benzo[1,4]dioxin-5-yl)-piperazine] | inhibition at 0.1 µM ([1]; at 100 nM): 97% |
| 2 | 102 |  | Clc1ccc(Cl)c(SCCCN2CCN(c3cccc4c3OCCO4)CC2)c1 [Compound 7ay, 1-[3-(2,5-Dichloro-phenylsulfanyl)-propyl]-4-(2,3-dihydro-benzo[1,4]dioxin-5-yl)-piperazine] |  |
|  | 99 |  | C=CCc1ccccc1OCCCCN1CCN(c2cccc3c2OCCO3)CC1 [Compound 7bp, 1-[4-(2-Allyl-phenoxy)-butyl]-4-(2,3-dihydro-benzo[1,4]dioxin-5-yl)-piperazine] | inhibition at 0.1 µM ([1]; at 100 nM): 92% |
|  | 102 |  | Clc1ccc(Cl)c(SCCCCN2CCN(c3cccc4c3OCCO4)CC2)c1 [Compound 7bd, 1-[4-(2,5-Dichloro-phenylsulfanyl)-butyl]-4-(2,3-dihydro-benzo[1,4]dioxin-5-yl)-piperazine] | inhibition at 0.1 µM ([1]; at 100 nM): 84% |
|  | 91 |  | Cc1cccc(C)c1OCCN1CCN(c2cccc3c2OCCO3)CC1 [Compound 7ab, 1-(2,3-Dihydro-benzo[1,4]dioxin-5-yl)-4-[2-(2,6-dimethyl-phenoxy)-ethyl]-piperazine] | inhibition at 0.1 µM ([1]; at 100 nM): 86% |
| 120 |  | 6.9 | Cc1cc(F)ccc1OCCCN1CCN(c2ccc(C#N)c3c2OCCO3)CC1 [Compound 6a, 8-{4-[3-(4-Fluoro-2-methyl-phenoxy)-propyl]-piperazin-1-yl}-2,3-dihydro-benzo[1,4]dioxine-5-carbonitrile] |  |
| 9.2 | 100 |  | CCc1ccccc1SCCCN1CCN(c2cccc3c2OCCO3)CC1 [Compound 7ax, 1-(2,3-Dihydro-benzo[1,4]dioxin-5-yl)-4-[3-(2-ethyl-phenylsulfanyl)-propyl]-piperazine] |  |
